These results are taken from patent US20140072629A1, “BIOLOGIC MATRICES COMPRISING ANTI-INFECTIVE, METHODS AND COMPOSITIONS RELATED THERETO” (MUSCULOSKELETAL TRANSPLANT FOUNDATION, priority 2008, published 2014).

Where two headings read alike, the source gives them in different places.

Data set [1] in a line: Solubility / saturation point of Triclosan in alcohol and water. Format: physicochemical. From the text: In particular embodiments, an alcohol solution comprising triclosan is delivered to a hydrated acellular biologic matrix, e.g., a biologic matrix treated with a 40% SDA solution. In other embodiments, the matrix is hydrated with e.g., water, saline solution, and the like. Without being bound to theory, it is thought that the triclosan will partially separate from the alcohol phase due to the triclosan's great differential solubility (alcohol soluble and water insoluble) and deposit as an undissolved agent on the surface of and within the biologic tissue. Therefore, after implantation of the triclosan-treated biologic tissue into a subject, the triclosan will slowly exude or leach off the biologic tissue and out of the alcohol layer directly into the wound zone where bacteria may be collecting. Moreover, some of the triclosan may be held by the insoluble water phase and assist in this slow release. In this regard, where the soluble form of triclosan in alcohol would typically be active right away and dissipate within 8-12 hours in a transplant subject, such as a human abdominal hernia patient, it is thought that the precipitated triclosan in a transplanted treated acellular matrix of the subject invention will reside longer at the wound site, e.g., up to about 24-48 hours after transplantation, thereby increasing the effective amount of anti-infective available at the wound site. […]

For data set [2] the following is noted: cited from earlier work.

For `Oc1cc(Cl)ccc1Oc1ccc(Cl)cc1Cl` [Triclosan, 2,4,4′-trichloro-2′-hydroxy-diphenyl-ether], the saturation point is recorded as 600 ppm in data set [1] (25% alcohol) and 1700 ppm in data set [1] (30% alcohol). Also, the “solubility, in words” value in data set [2] (in alcohol) is recorded as “very soluble”; in data set [2] (in water), “very insoluble”.
